According to ChEMBL document CHEMBL1201862, “PubChem BioAssay data set” (2004):
Calls of active or inactive are those of the source.

Assays:
Vero = assay: Vero E6 cell cytotoxicity, dose response, cytotoxicity control (AID 540298); type: functional; conditions: Chlorocebus sabaeus
[1] = NIH3T3 cell viability loss – ATP luminescence, mouse fibroblasts, counter-screen, dose response (AID 2010); type: functional, cell-based;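 also: cells exposed to compound for about 90 hours before reading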
MDCK [2] = assay: MDCK cell cytotoxicity, dose response, cytotoxicity control (AID 540296); type: functional; conditions: Canis lupus familiaris
MDCK [3] = assay: antiviral activity against H1N1 influenza, dose response, cell-based, strain KY136 (AID 540257); type: functional; conditions: Canis lupus familiaris
[4] = target: Neurotensin receptor type 1 (Homo sapiens, UniProt P30989); type: functional;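 also: Image-based confirmatory dose-response assay measuring agonist activity at NTR1; NTR1-expressing U2OS osteosarcoma cells imaged for beta-arrestin GFP spot formation; agonist potency where compounds increase beta-arrestin recruitment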
[5] = Trypanosoma cruzi growth suppression in host cells – NIH3T3 host cells, beta-gal luminescence, confirmation (AID 2044); type: functional, cell-based;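 also: intracellular parasites grown in NIH/3T3 mouse fibroblasts as host cells; luminescent beta-galactosidase reporter signal from transgenic T. cruzi replicating inside host cells; inhibitors lower the luminescence signal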
[6] = viability loss in HeLa cells – cytotoxicity control for MgcRacGAP inhibitor project, dose response (AID 624300); type: functional
[7] = target: G-protein coupled receptor 55 (Homo sapiens, UniProt Q9Y2T6); assay: selective activators of receptor GPR55 – imaging, U2OS cells, beta-arrestin-GFP redistribution, primary screen (AID 1961); type: functional
[8] = target: T1, Rac GTPase-activating protein 1 (Homo sapiens, UniProt Q9H0H5); assay: blockers of MgcRacGAP-driven Rac1 GTP hydrolysis – biochemical, ADP Hunter fluorescence, primary and confirmatory, confirmation (AID 624330); type: functional
T1 sequence (Q9H0H5 whole entry): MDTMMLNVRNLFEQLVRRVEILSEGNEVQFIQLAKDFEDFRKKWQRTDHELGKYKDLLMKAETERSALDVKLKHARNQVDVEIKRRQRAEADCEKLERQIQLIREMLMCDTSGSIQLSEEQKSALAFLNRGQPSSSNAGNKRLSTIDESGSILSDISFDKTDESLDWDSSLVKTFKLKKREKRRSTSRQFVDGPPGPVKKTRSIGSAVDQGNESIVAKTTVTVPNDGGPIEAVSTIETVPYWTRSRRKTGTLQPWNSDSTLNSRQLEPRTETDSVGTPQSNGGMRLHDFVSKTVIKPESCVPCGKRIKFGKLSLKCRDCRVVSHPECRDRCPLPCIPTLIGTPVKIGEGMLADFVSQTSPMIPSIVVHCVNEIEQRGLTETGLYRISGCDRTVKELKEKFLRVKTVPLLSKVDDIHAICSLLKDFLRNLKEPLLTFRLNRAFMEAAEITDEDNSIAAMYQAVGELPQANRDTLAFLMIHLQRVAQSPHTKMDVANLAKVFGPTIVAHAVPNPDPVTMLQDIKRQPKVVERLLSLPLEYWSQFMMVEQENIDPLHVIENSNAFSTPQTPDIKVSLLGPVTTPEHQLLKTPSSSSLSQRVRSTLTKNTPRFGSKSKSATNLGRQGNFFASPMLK

X-box-binding protein 1 = X-box-binding protein 1 (Homo sapiens, UniProt P17861); type: functional, Cricetulus griseus;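 also: confirmatory dose-response counter-screen serving a CHOP assay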
HEK293 [9] = assay: NOD2 signaling inhibitors in MDP-stimulated cells, cell-based, uHTS, luminescence (AID 2001); type: functional; conditions: Homo sapiens
Nonstructural protein 1 = Nonstructural protein 1 (Influenza A virus, UniProt Q194T2); type: functional, Influenza A virus (A/California/07/2009(H1N1))
HEK293 [10] = assay: inhibition of NOD1-driven NF-kB reporter – cell-based, luminescence, uHTS, primary screen (AID 1578); type: functional; conditions: Homo sapiens
HEK293 [11] = assay: cells; type: functional, cell-based; conditions: Homo sapiens
HEK293 [12] = assay: cells; type: functional, cell-based; conditions: Homo sapiens; remark: listed apart in the source
[13] = target: Sphingosine 1-phosphate receptor 1 (Homo sapiens, UniProt P21453); type: functional;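 also: Tango beta-arrestin reporter U2OS cells stimulated with S1P near its EC80; inhibitor potency meaning antagonism of receptor activation by the natural agonist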
HeLa = assay: Cytotoxicity counterscreen assay for transcriptional activators of heat shock protein 70 (Hsp70). [Related pubchem assays: 1203, 1252 ]; type: functional; conditions: Homo sapiens;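 also: cells exposed to compound for 16 hours before readout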
[14] = target: T2, Sphingosine 1-phosphate receptor 4 (Homo sapiens, UniProt O95977); assay: Fluorescence dose response cell-based high throughput screening assay for antagonists of the Sphingosine 1-Phosphate Receptor 4 (S1P4). [Related pubchem assays: 1524 (Confirmation in triplicates.), 1510 (Primary screen.)]; type: functional
T2 sequence (O95977 whole entry): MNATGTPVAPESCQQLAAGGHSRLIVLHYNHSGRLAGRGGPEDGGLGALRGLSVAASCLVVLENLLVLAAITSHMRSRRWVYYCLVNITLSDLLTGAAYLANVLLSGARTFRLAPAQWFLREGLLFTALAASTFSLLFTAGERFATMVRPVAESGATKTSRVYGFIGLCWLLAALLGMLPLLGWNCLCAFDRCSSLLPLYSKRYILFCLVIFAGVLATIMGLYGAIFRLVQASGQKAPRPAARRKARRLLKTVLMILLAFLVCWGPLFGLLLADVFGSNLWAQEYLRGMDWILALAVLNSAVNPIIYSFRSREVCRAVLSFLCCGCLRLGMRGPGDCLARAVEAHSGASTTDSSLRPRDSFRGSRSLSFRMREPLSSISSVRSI

[15] = target: T3, Eukaryotic translation initiation factor 2-alpha kinase 3 (Homo sapiens, UniProt Q9NZJ5); assay: Counterscreen assay for PERK inhibitors: Dose response cell-based high throughput screening assay to measure inhibition of PERK at 6 hours. [Related pubchem assays: 1522, 1416 ]; type: functional
[16] = target: T3, Eukaryotic translation initiation factor 2-alpha kinase 3; assay: Dose response cell-based high-throughput screening assay to measure PERK inhibition. [Related pubchem assays: 1416 ]; type: functional
HEK293 [17] = assay: cells; conditions: Homo sapiens
Tumor necrosis factor = Tumor necrosis factor (Homo sapiens, UniProt P01375); assay: analog potency on TNFa NF-kB signaling – cell-based, revised, SAR follow-up (AID 2337); type: functional
Interleukin-8 = Interleukin-8 (Homo sapiens, UniProt P10145); assay: SAR analysis of tumor necrosis factor alpha (TNF-alpha) induced IL-8 secretion in MCF-7/NOD1 cells. [Related pubchem assays (depositor defined):AID1575, AID2250, AID2260]; type: functional, cell-based
[18] = DRD fibroblast viability loss – cell-based, non-viral oncogenic, luminescence, dose response (AID 1934); type: functional; conditions: Homo sapiens
BJ [19] = assay: cells; type: functional, cell-based; conditions: Homo sapiens
[20] = target: Disintegrin and metalloproteinase domain-containing protein 17 (Homo sapiens, UniProt P78536); assay: exosite inhibitors of ADAM17, dose response, biochemical (AID 743260)
[21] = luciferase reporter signal reduction – luminescence, H4-C neuroglioblastoma cells, dose response (AID 2458); type: functional, cell-based;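 also: H4 neuroglioblastoma cells stably carrying a luciferase reporter gene fusion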
[22] = Luminescence Cell-Based Dose Response HTS to Identify Inhibitors of 5'UTR Stem-Loop Driven Prion Protein mRNA Translation in H4 Neuroglioblastoma Cells. [Related pubchem assays: 1827 (Project Summary), 1813 (Primary HTS)]; type: functional
[23] = alpha-synuclein stem-loop luciferase translation blockers – H4 neuroglioma cells, luminescence, confirmation (AID 1988); type: functional, cell-based
[24] = HEK-293T viability loss after treatment – luminescence, T-cell screen hits, cytotoxicity control for TCR NF-kB inhibitor project, dose response (AID 489026); type: functional, cell-based;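 also: cells exposed to compound about 14 hours before the viability readout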
BJ [25] = assay: BJ-TERT fibroblast viability loss – cell-based, RAS-independent, luminescence, dose response (AID 1933); type: functional; conditions: Homo sapiens
[26] = inhibition of ADAM10 peptide cleavage – biochemical, FRET peptide substrate, recombinant human ADAM10, selectivity assay for ADAM17 exosite inhibitor project, dose response (AID 743259);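 also: ADAM10 enzyme cleaving a FRET peptide substrate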
cells = type: functional, cell-based
[27] = alpha-synuclein stem-loop translation blockers – luminescence, H4 neuroglioblastoma cells, dose confirmation, confirmation (AID 2454); type: functional, cell-based;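 also: H4 neuroglioblastoma cells carrying an alpha-synuclein 5'UTR luciferase reporter; potency for inhibition of the luciferase signal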
BJ [28] = assay: BJ-TERT-LT-ST fibroblast viability loss – cell-based, RAS-independent, luminescence, dose response (AID 1935); type: functional; conditions: Homo sapiens;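 also: BJ fibroblasts immortalized with TERT plus LT and ST oncogenes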
[29] = target: Glucose-6-phosphate 1-dehydrogenase (Homo sapiens, UniProt P11413); assay: inhibition of Homo sapiens G6PD, dose series – biochemical, fluorescence, selectivity assay for P. falciparum G6PD inhibitor project, dose response (AID 504792); type: functional
[30] = target: T4, Probable nicotinate-nucleotide adenylyltransferase (Staphylococcus aureus (strain N315), UniProt P65502); type: functional, Staphylococcus aureus subsp. aureus N315; conditions: read-out: IC50_Mean;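 as to IC50 Mean: confirmatory dose-response retesting of NadD inhibitor hits first found in an ultra-high-throughput screen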
[31] = target: T4, Probable nicotinate-nucleotide adenylyltransferase; type: functional, Staphylococcus aureus subsp. aureus N315
[32] = target: 5-hydroxytryptamine receptor 1E (Homo sapiens, UniProt P28566); assay: Counterscreen assay for S1P3 antagonists: Dose response cell-based high throughput screening assay to identify antagonists of the 5-Hydroxytryptamine Receptor Subtype 1E (5HT1E). [Related pubchem assays: 1429, 485 ]; type: functional
[33] = target: Sphingosine 1-phosphate receptor 3 (Homo sapiens, UniProt Q99500); assay: Dose response cell-based high throughput screening assay for antagonists of the Sphingosine 1-Phosphate Receptor 3 (S1P3). [Related pubchem assays: 1429, 485 ]; type: functional
Paired box protein Pax-8 = Paired box protein Pax-8 (Homo sapiens, UniProt Q06710); assay: PAX8 transcriptional activity inhibition in RMG-I – RMG-I cells, luciferase, cherry-pick, dose response (AID 687027); type: functional, cell-based;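 also: luciferase reporter driven by Pax8 target thyroperoxidase promoter measured by SteadyGlo luminescence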
[34] = target: Neuropeptide Y receptor type 2 (Homo sapiens, UniProt P49146); type: functional, cell-based;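 also: HEK293 cells expressing the receptor and a CNG channel; stimulus was NPY near EC95 followed by isoproterenol to raise cAMP; antagonist potency measured as restoring cAMP signal that NPY suppresses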
[35] = target: Neuropeptide Y receptor type 1 (Homo sapiens, UniProt P25929); type: functional;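 also: HEK293 cells with a CNG channel challenged with NPY then isoproterenol; potency as antagonist that reverses NPY suppression of cAMP signal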
Neuropeptide Y receptor type 1, sequence (P25929 whole entry): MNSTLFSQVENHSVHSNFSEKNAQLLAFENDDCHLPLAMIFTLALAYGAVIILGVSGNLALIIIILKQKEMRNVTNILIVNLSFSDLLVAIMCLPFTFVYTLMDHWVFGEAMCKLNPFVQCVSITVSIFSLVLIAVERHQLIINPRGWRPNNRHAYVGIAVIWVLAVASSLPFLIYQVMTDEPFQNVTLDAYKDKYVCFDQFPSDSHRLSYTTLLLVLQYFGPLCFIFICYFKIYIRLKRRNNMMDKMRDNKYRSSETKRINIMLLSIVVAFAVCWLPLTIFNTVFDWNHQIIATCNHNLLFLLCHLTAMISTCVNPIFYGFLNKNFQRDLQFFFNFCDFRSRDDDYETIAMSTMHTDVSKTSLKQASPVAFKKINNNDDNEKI

T4 sequence (P65502 whole entry): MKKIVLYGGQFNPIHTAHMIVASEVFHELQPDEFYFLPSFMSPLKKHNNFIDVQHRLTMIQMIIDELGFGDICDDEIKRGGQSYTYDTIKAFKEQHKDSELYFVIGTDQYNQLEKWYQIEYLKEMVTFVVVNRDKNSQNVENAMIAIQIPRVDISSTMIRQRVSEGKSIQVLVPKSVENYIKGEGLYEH
T3 sequence (Q9NZJ5 whole entry): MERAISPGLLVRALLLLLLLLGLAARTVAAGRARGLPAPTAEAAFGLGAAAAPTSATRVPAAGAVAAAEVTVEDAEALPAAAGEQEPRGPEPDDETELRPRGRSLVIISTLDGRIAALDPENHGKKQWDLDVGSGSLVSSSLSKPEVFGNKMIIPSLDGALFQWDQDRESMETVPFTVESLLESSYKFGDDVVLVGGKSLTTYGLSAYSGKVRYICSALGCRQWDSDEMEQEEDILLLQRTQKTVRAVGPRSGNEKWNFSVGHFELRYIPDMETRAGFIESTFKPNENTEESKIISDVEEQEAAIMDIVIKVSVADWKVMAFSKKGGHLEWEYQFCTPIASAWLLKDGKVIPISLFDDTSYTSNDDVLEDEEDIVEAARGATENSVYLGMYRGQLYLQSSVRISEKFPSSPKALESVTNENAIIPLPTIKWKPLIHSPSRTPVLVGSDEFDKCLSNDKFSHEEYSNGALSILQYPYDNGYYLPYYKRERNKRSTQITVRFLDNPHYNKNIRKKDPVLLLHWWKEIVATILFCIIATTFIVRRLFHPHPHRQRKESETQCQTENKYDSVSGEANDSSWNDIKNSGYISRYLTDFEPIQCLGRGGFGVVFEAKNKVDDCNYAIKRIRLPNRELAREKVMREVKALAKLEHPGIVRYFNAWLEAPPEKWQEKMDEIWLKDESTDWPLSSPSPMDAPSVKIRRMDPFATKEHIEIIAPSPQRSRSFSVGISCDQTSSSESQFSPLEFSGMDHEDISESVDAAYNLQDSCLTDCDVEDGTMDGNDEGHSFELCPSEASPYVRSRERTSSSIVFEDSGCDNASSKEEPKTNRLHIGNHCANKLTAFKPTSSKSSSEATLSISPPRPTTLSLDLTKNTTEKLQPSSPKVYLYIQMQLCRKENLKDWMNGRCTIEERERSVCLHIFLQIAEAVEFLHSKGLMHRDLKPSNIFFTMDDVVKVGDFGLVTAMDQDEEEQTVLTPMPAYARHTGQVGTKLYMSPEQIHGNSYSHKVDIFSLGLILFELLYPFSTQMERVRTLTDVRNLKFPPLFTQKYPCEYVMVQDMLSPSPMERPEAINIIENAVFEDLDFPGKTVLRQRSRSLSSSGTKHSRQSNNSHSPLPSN
Sphingosine 1-phosphate receptor 3, sequence (Q99500 whole entry): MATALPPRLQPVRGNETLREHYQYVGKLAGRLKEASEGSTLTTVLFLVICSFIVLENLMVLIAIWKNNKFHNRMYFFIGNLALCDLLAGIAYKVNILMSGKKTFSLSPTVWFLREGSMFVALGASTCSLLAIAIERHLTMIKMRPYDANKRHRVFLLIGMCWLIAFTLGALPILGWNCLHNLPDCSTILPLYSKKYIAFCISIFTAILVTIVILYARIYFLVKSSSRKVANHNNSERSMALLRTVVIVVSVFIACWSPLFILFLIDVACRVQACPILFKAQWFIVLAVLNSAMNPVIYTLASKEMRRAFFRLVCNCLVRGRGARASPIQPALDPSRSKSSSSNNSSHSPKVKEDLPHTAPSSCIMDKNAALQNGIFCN
Nonstructural protein 1, sequence (Q194T2 whole entry): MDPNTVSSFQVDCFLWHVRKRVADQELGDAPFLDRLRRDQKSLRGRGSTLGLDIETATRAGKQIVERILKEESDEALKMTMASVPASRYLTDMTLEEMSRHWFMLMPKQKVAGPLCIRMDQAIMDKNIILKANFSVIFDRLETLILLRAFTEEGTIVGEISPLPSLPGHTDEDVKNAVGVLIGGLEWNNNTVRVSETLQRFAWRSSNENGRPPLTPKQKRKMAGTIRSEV
X-box-binding protein 1, sequence (P17861 whole entry): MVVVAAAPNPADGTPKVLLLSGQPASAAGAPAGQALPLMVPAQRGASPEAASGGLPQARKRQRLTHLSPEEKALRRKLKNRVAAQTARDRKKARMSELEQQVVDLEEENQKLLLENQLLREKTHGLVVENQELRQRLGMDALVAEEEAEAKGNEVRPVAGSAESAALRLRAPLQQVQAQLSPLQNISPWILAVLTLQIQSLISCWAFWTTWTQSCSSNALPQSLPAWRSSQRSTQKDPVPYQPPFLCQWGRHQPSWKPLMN
Neuropeptide Y receptor type 2, sequence (P49146 whole entry): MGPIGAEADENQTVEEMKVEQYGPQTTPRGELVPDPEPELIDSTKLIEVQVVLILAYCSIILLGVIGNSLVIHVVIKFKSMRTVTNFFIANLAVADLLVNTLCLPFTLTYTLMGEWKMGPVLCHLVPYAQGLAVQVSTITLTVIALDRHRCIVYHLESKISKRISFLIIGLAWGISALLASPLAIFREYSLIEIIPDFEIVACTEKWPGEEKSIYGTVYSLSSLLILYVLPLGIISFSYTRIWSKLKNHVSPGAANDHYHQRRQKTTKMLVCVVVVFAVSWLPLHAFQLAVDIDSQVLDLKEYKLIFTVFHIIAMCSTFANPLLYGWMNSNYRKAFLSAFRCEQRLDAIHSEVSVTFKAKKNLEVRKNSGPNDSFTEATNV
Paired box protein Pax-8, sequence (Q06710 whole entry): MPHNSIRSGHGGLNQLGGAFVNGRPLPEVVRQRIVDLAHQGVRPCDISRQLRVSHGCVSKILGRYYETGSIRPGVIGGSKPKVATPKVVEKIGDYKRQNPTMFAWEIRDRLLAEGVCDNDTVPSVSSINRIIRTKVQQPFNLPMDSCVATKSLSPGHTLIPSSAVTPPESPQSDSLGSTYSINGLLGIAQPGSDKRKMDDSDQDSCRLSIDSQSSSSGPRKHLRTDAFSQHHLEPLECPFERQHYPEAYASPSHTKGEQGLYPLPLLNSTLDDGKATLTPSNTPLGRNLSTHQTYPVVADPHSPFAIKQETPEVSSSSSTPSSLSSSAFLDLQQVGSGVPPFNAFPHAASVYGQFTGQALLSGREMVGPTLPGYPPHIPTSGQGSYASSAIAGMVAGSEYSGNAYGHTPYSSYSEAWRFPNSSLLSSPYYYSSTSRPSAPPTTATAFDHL
Tumor necrosis factor, sequence (P01375 whole entry): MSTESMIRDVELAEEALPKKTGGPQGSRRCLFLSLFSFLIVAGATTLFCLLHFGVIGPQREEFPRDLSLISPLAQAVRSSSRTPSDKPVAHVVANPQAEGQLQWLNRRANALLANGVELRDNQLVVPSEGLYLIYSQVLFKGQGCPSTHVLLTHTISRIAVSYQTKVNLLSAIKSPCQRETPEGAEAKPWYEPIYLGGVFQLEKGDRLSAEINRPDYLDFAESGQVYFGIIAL
Interleukin-8, sequence (P10145 whole entry): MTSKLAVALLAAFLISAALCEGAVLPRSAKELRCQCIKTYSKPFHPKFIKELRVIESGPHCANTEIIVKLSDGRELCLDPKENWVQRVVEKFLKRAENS
G-protein coupled receptor 55, sequence (Q9Y2T6 whole entry): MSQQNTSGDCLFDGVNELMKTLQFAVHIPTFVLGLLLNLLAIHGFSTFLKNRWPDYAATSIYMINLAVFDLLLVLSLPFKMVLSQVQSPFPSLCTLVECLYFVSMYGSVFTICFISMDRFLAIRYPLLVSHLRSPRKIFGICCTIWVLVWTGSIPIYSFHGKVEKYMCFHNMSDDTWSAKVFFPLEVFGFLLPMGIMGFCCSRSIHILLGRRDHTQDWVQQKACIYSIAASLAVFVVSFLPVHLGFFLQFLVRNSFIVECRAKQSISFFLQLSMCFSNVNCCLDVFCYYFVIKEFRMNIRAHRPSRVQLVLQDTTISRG
Disintegrin and metalloproteinase domain-containing protein 17, sequence (P78536 whole entry, the tested form may be a part): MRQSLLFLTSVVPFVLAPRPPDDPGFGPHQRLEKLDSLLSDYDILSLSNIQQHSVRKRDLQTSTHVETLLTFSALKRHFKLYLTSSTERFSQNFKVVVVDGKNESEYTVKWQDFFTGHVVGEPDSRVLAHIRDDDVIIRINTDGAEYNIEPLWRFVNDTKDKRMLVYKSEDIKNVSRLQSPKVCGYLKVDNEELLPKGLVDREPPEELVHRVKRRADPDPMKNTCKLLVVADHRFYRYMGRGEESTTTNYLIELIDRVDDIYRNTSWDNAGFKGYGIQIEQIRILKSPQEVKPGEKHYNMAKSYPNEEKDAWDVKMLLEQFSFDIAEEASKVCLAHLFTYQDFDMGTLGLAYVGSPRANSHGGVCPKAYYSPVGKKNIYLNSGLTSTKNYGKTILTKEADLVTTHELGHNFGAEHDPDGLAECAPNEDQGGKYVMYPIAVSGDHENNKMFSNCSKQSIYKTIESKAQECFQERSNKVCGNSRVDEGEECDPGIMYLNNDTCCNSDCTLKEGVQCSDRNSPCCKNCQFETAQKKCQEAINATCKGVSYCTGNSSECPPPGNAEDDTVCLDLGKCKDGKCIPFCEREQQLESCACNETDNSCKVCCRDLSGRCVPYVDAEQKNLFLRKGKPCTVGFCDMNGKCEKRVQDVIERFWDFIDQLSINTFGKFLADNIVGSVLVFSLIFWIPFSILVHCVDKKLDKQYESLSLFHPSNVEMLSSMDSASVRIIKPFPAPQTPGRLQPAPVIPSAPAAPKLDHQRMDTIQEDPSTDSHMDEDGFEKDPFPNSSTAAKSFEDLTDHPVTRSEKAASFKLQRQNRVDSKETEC

Compound: COC(=O)c1ccc2c(c1)C(C)(C)C(/C=C/c1ccccc1O)=[N+]2C.[I-]
- CC50 (Vero): 4.79 µM (active)
- EC50 [1]: 4.69 µM (active)
- CC50 (MDCK [2]): 5.8 µM (active)
- IC50 (MDCK [3]): 8.58 µM (active)
- EC50 [4]: 18.3 µM (active)
- EC50 [5]: 0.584 µM (active)
- CC50 [6]: 30.9 µM (active)
- EC50 [7]: 2.75 µM (active)
- IC50 [8]: 21 µM (active)
- Absolute IC50 (XBP1) (X-box-binding protein 1): 10 µM
- IC50 (HEK293 [9]): 11.7 µM (inactive)
- IC50 (Nonstructural protein 1): 22.7 µM (active)
- EC50 (HEK293 [10]): 7.83 µM (active)
- IC50 (HEK293 [11]): > 20 µM (inactive)
- IC50 (HEK293 [12]): 5.74 µM (active)
- IC50 [13]: 4.76 µM (active)
- CC50 (HeLa): 8.49 µM (active)
- IC50 [14]: 0.798 µM (active)

Compound: CCS(=O)(=O)N1CCC(C(=O)NCc2ccc(F)cc2)CC1
- EC50 [15]: > 55.7 µM (not active)
- EC50 [16]: > 55.7 µM (not active)

Compound: Nc1nc2ccccc2n1S(=O)(=O)c1ccccc1
- IC50 (HEK293 [17]): > 20 µM (inactive)
- IC50 (Tumor necrosis factor): > 20 µM (inactive)
- IC50 (Interleukin-8): > 5 µM (inactive)

Compound: Cc1cc(C)c(S(=O)(=O)Nc2ccc3c4c(cccc24)CC3)c(C)c1
- EC50 [18]: 0.383 µM (inconclusive)
- EC50 (BJ [19]): 2.1 µM (inconclusive)
- IC50 [20]: > 69.5 µM (inactive)
- EC50 [21]: 1.06 µM (active)
- EC50 [22]: 9.52 µM (active)
- EC50 [23]: < 0.1 µM (active)
- IC50 [24]: > 80 µM (inactive)
- EC50 (BJ [25]): 0.288 µM (active)
- IC50 [26]: > 69.5 µM (inactive)
- EC50 (cells): 2.97 µM (active)
- EC50 [27]: 1.2 µM (active)
- EC50 (BJ [28]): 0.246 µM (inconclusive)

Compound: Cc1cccc(C2(c3cccc(C)c3)CC2C(=O)Nc2ccc([N+](=O)[O-])cc2O)c1 (stereo not drawn)
- IC50 [29]: > 80 µM (inactive)
- IC50 [30]: 45.4 µM (active)
- IC50 [31]: 17 µM (active)
- IC50 [32]: 5.46 µM (active)
- IC50 [33]: > 50 µM (not active)
- AC50 (Paired box protein Pax-8): 7.83 µM (active)

Compound: CCCCOc1ccc(C2=NNC(=O)CC2)cc1
- IC50 [34]: 4.54 µM (active)
- IC50 [35]: 13.6 µM (not active)
